Measurements published in patent US7786083B2, “Metastin derivatives and use thereof” (Takeda Pharmaceutical Company Limited, priority 2006, dated 2010).
Where a SMILES comes first, the peptide text is derived from it. Where no end group is shown, it is not given here. [ ]: non-standard residue; d: D form. 2Nal = N[C@@H](Cc1ccc2ccccc2c1)C(=O)O; Arg(Me) = CNC(=N)NCCC[C@H](N)C(=O)O; Dap(CONH2) = NC(=O)NC[C@H](N)C(=O)O; Hyp = O=C(O)[C@@H]1C[C@@H](O)CN1; Cha = N[C@@H](CC1CCCCC1)C(=O)O; Cba = N[C@@H](CC1CCC1)C(=O)O

Tested on: metastin receptors
Assay: Measurement of agonist activity by assaying changes in intracellular calcium ion level (FLIPR, Fluo-4 NW)
Format: cell-based, human
Details: specific activity of the EC50 of a test compound based on the EC50 of Metastin (45-54), metastin receptor expression CHO cells
Outline: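 CHO/dhfr⁻ cells stably expressing human or rat metastin receptor, seeded 3×10^4/well for 24 h, loaded with Fluo-4 NW 30 min at 37 °C in HBSS with 0.1% BSA, 20 mM HEPES pH 7.4 and 1 mM probenecid. Compound-stimulated intracellular calcium change read on FLIPR.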

Molecule	Specific Activity
CNC(=N)NCCC[C@H](NC(=O)[C@H](CC1CCC1)NC(=O)CNC(=O)[C@H](CC1CCCCC1)NC(=O)[C@@H](NC(=O)[C@H](CC(N)=O)NC(=O)[C@@H]1C[C@@H](O)CN1C(=O)[C@@H](Cc1ccc(O)cc1)NC(C)=O)[C@@H](C)O)C(=O)N[C@@H](Cc1c[nH]c2ccccc12)C(N)=O [Compound No. 946, des(1)-Ac-[D-Tyr2,Hyp3,Thr5,Cha6,Ala(cBu)8,Arg(Me)9,Trp10]MS10] (Ac-[dY][Hyp]NT[Cha]G[Cba][Arg(Me)]W-NH2)	0.5
des(1)-Ac-[D-Tyr2,Hyp3,Thr5,Nal(2)6,Arg(Me)9,Trp10]MS10 (Ac-[dY][Hyp]NT[2Nal]GL[Arg(Me)]W; ends and bridges not checked) [Compound No. 919]	1.0
CNC(=N)NCCC[C@H](NC(=O)[C@H](CC(C)C)NC(=O)CNC(=O)[C@H](Cc1ccccc1)NC(=O)[C@@H](NC(=O)[C@H](CNC(N)=O)NC(=O)[C@@H]1C[C@@H](O)CN1C(=O)[C@@H](Cc1ccc(O)cc1)NC(C)=O)[C@@H](C)O)C(=O)N[C@@H](Cc1c[nH]c2ccccc12)C(N)=O [Compound No. 885, des(1)-Ac-[D-Tyr2,Hyp3,Alb4,Thr5,Arg(Me)9,Trp10]MS10] (Ac-[dY][Hyp][Dap(CONH2)]TFGL[Arg(Me)]W-NH2)	0.5
